Measured values reported in patent US6737383B1, “Herbicidal oxadiazolidines” (priority 1999, dated 2004).

Tests used:
maize hybrid P33G26 = assay: Test G maize injury with safener-treated seed; conditions: absence of any safener; rates ranging from 140 to 1120 g/ha
How it was run: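 Maize hybrid P33G26 seed, treated with dichlormid, fenchlorazole-ethyl or naphthalic anhydride or left untreated, was sown in soil pots, then sprayed pre-emergence with several compound rates at 310 L/ha. Plants grew in a greenhouse (14 h day, about 27/24 °C day/night), with 4–5 replicates. Injury was scored visually against untreated controls 28 days after application.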

barnyardgrass = assay: Test C postemergence barnyardgrass; assay type: in vivo, Echinochloa crus-galli; conditions: 0 to 100 scale, 0 no effect, 100 complete control
Method: (§1) Compounds evaluated in this test were formulated in a non-phytotoxic solvent mixture which included a surfactant and applied to plants that were grown for various periods of time before treatment (postemergence application). A mixture of sandy loam soil and greenhouse potting mix in a 60:40 ratio was used for the postemergence test.
(§2) Plantings of these crops and weed species were adjusted to produce plants of appropriate size for the postemergence test. All plant species were grown using normal greenhouse practices. Crop and weed species include arrowleaf sida (Sida rhombifolia), barnyardgrass (Echinochloa crus-galli), cocklebur (Xanthium strumarium), common ragweed (Ambrosia elatior), corn (Zea mays), cotton (Gossypium hirsutum), eastern black nightshade (Solanum ptycanthum), fall panicum (Panicum dichotomiflorum), field bindweed (Convolvulus arvensis), giant foxtail (Setaria faberii), hairy beggarticks (Bidens pilosa), ivyleaf morningglory (Ipomoea hederacea), johnsongrass (Sorghum halepense), ladysthumb smartweed (Polygonum persicaria), lambsquarters (Chenopodium album), large crabgrass (Digitaria sanguinalis), purple nutsedge (Cyperus rotundus), redroot pigweed (Amaranthus retroflexus), soybean (Glycine max), surinam grass (Brachiaria decumbens), velvetleaf (Abutilon theophrasti) and wild poinsettia (Euphorbia heterophylla).
(§3) Treated plants and untreated controls were maintained in a greenhouse for approximately 14, to 21 days, after which all treated plants were compared to untreated controls and visually evaluated. Plant response ratings, summarized in Table C, were based upon a 0 to 100 scale where 0 was no effect and 100 was complete control. A dash response (−) means no test result.

large crabgrass = assay: Test C postemergence large crabgrass; assay type: in vivo, Digitaria sanguinalis; conditions: 0 to 100 scale, 0 no effect, 100 complete control
Method: as §1, §2, §3

Amaranthus rudis (AMATA) = assay: Test F preemergence, alone and in mixture with rimsulfuron, AMATA; assay type: in vivo; conditions: 21 days after treatment, 0-100 scale
Method: (§4) Abutilon theophrasti (ABUTH), Chenopodium album (CHEAL), Amaranthus rudis (AMATA), Setaria faberii (SETFA), Panicum dichotomiflorum (PANDI), and Digitaria sanguinalis (DIGSA) were grown from seed in pots of an artificial potting mixture in a greenhouse. Compounds of the present invention were applied at 70 and 105 g ai/ha preemergence. Rimsulfuron was applied at 8.8 and 17.5 g ai/ha. Mixtures of the compounds of the present invention and rimsulfuron were also applied.
(§5) Following application, the plants were maintained by watering as needed. A fertilizer solution of Peter's 20-20-20 (10 pounds/5 gallons of water) plus Sprint 330, a Iron Chelate micronutrient, (113.5 grams/5 gallons of water) was injected into the water with an Anderson fertilizer injection system to provide approximately 219 ppm of nitrogen with each watering. Artificial lighting was used to supplement natural light to produce a 14 hour photoperiod and: an additional one hour light period was used between 1:00 am to 2:00 am for a night interruption. Greenhouse temperatures were targeted for 27° C. in the day and 21° C. at night. At 21 days after treatment, all plants were evaluated for injury as compared to control plants that were sprayed only with non-phytotoxic solvent.
(§6) Colby's equation was used to calculate the expected additive herbicidal effect of the mixtures of Compound 21 and the mixture partners listed above. […]

[1] = system: Digitaria sanguinalis (DIGSA); assay: Test F preemergence, alone and in mixture with rimsulfuron, DIGSA; assay type: in vivo; conditions: 21 days after treatment, 0-100 scale
Method: as §4, §5, §6

corn = assay: Test C postemergence corn; assay type: in vivo, Zea mays; conditions: 0 to 100 scale, 0 no effect, 100 complete control
How it was run: (§7)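 Activity is expressed as percent-style visual control, 0 (no effect) to 100 (complete control), assessed approximately 14 to 21 days after application, relative to untreated plants. Application was postemergence, using a non-phytotoxic solvent formulation with surfactant.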

fall panicum = assay: Test C postemergence fall panicum; assay type: in vivo, Panicum dichotomiflorum; conditions: 0 to 100 scale, 0 no effect, 100 complete control
How it was run: as §7

cocklebur = assay: Test C postemergence cocklebur; assay type: in vivo, Xanthium strumarium; conditions: 0 to 100 scale, 0 no effect, 100 complete control
How it was run: as §7

lambsquarters = assay: Test C postemergence lambsquarters; assay type: in vivo, Chenopodium album; conditions: 0 to 100 scale, 0 no effect, 100 complete control
How it was run: as §7

cotton = assay: Test C postemergence cotton; assay type: in vivo, Gossypium hirsutum; conditions: 0 to 100 scale, 0 no effect, 100 complete control
How it was run: as §7

common ragweed = assay: Test C postemergence common ragweed; assay type: in vivo, Ambrosia elatior; conditions: 0 to 100 scale, 0 no effect, 100 complete control
Method: as §1, §2, §3

[2] = system: Chenopodium album (CHEAL); assay: Test F preemergence, alone and in mixture with rimsulfuron, CHEAL; assay type: in vivo; conditions: 21 days after treatment, 0-100 scale
Method: as §4, §5, §6

purple nutsedge = assay: Test C postemergence purple nutsedge; assay type: in vivo, Cyperus rotundus; conditions: 0 to 100 scale, 0 no effect, 100 complete control
Method: as §1, §2, §3

ivyleaf morningglory = assay: Test C postemergence ivyleaf morningglory; assay type: in vivo, Ipomoea hederacea; conditions: 0 to 100 scale, 0 no effect, 100 complete control
Method: as §1, §2, §3

ladysthumb smartweed = assay: Test C postemergence ladysthumb smartweed; assay type: in vivo, Polygonum persicaria; conditions: 0 to 100 scale, 0 no effect, 100 complete control
Method: as §1, §2, §3

[3] = Alone: Cmpd. rate 70, Rimsulfuron 0
[4] = Alone: Cmpd. rate 105, Rimsulfuron 0

With CC(C)N(C(=O)n1oc(=O)n(-c2ccccc2OC(F)(F)F)c1=O)c1ccc(F)cc1 [Compound 14] the Injury to maize (maize hybrid P33G26) was “severely injurious to maize”.
For CC(C)N(C(=O)n1oc(=O)n(C(C)C)c1=O)c1ccccc1 [Compound 113], the “Plant response rating, Barnyardgrass” value (barnyardgrass; Rate 140 g/ha) was 80, the “Plant response rating, Barnyardgrass” value (barnyardgrass; Rate 280 g/ha) was 80 and the “Plant response rating, Barnyardgrass” value (barnyardgrass; Rate 560 g/ha) was 85. The “Plant response rating, Barnyardgrass” value (barnyardgrass; Rate 1120 g/ha) was 95, the “Plant response rating, Large crabgrass” value (large crabgrass; Rate 140 g/ha) was 0 and the “Plant response rating, Large crabgrass” value (large crabgrass; Rate 280 g/ha) was 85. For the same molecule, the “Plant response rating, Large crabgrass” value (large crabgrass; Rate 560 g/ha) was 95, the “Plant response rating, Large crabgrass” value (large crabgrass; Rate 1120 g/ha) was 95 and the “AMATA Observed” value (Amaranthus rudis (AMATA); [3]) was 35%. The “AMATA Observed” value (Amaranthus rudis (AMATA); [4]) was 25%, the “DIGSA Observed” value [1, 3] was 95% and the “DIGSA Observed” value [1, 4] was 70%. For the same molecule, the “Plant response rating, Corn” value (corn; Rate 140 g/ha) was 0, the “Plant response rating, Corn” value (corn; Rate 280 g/ha) was 40 and the “Plant response rating, Corn” value (corn; Rate 560 g/ha) was 45. The “Plant response rating, Corn” value (corn; Rate 1120 g/ha) was 60, the “Plant response rating Fall panicum” value (fall panicum; Rate 140 g/ha) was 60 and the “Plant response rating Fall panicum” value (fall panicum; Rate 280 g/ha) was 80. For the same molecule, the “Plant response rating Fall panicum” value (fall panicum; Rate 560 g/ha) was 85, the “Plant response rating Fall panicum” value (fall panicum; Rate 1120 g/ha) was 85 and the “Plant response rating, Cocklebur” value (cocklebur; Rate 140 g/ha) was 5. The “Plant response rating, Cocklebur” value (cocklebur; Rate 280 g/ha) was 50, the “Plant response rating, Cocklebur” value (cocklebur; Rate 560 g/ha) was 50 and the “Plant response rating, Cocklebur” value (cocklebur; Rate 1120 g/ha) was 50. The “Plant response rating Lambsquarters” value (lambsquarters; Rate 140 g/ha) was 0, the “Plant response rating Lambsquarters” value (lambsquarters; Rate 560 g/ha) was 20 and the “Plant response rating Lambsquarters” value (lambsquarters; Rate 1120 g/ha) was 50. For the same molecule, the “Plant response rating Cotton” value (cotton; Rate 140 g/ha) was 10, the “Plant response rating Cotton” value (cotton; Rate 280 g/ha) was 15 and the “Plant response rating Cotton” value (cotton; Rate 560 g/ha) was 50. For the same molecule, the “Plant response rating Cotton” value (cotton; Rate 1120 g/ha) was 80, the “Plant response rating Common ragweed” value (common ragweed; Rate 140 g/ha) was 5 and the “Plant response rating Common ragweed” value (common ragweed; Rate 280 g/ha) was 5. For the same molecule, the “Plant response rating Common ragweed” value (common ragweed; Rate 1120 g/ha) was 20, the “CHEAL Observed” value [2, 3] was 15% and the “CHEAL Observed” value [2, 4] was 35%. For the same molecule, the “Plant response rating, Purple nutsedge” value (purple nutsedge; Rate 140 g/ha) was 0, the “Plant response rating, Purple nutsedge” value (purple nutsedge; Rate 280 g/ha) was 10 and the “Plant response rating, Purple nutsedge” value (purple nutsedge; Rate 560 g/ha) was 0. The “Plant response rating, Purple nutsedge” value (purple nutsedge; Rate 1120 g/ha) was 10, the “Plant response rating I. morningglory” value (ivyleaf morningglory; Rate 140 g/ha) was 10 and the “Plant response rating I. morningglory” value (ivyleaf morningglory; Rate 280 g/ha) was 50. For the same molecule, the “Plant response rating I. morningglory” value (ivyleaf morningglory; Rate 560 g/ha) was 50, the “Plant response rating I. morningglory” value (ivyleaf morningglory; Rate 1120 g/ha) was 50 and the “Plant response rating Ladysthumb” value (ladysthumb smartweed; Rate 140 g/ha) was 0. The “Plant response rating Ladysthumb” value (ladysthumb smartweed; Rate 280 g/ha) was 0, the “Plant response rating Ladysthumb” value (ladysthumb smartweed; Rate 560 g/ha) was 85 and the “Plant response rating Ladysthumb” value (ladysthumb smartweed; Rate 1120 g/ha) was 85.
